# From patent US8895552B2, “Cyclic amide derivative” (Sumitomo Dainippon Pharma Co., Ltd., priority 2010, dated 2014)
# What was measured:
# 11βHSD1 = target: T1, 11βHSD1 (Homo sapiens, UniProt P28845); assay: Inhibitory activity assay against cortisone reducing activity of cultured human adipocytes; format: cell-based; details: differentiated normal human preadipocytes (HPrAD-vis), 100 nM [1,2-3H] cortisone, 37° C., read-out: IC50 against cortisone reducing activity of human adipose cell
# T1 construct: host or cells: normal human visceral preadipocytes differentiated to adipocytes
# T1 sequence (P28845 whole entry): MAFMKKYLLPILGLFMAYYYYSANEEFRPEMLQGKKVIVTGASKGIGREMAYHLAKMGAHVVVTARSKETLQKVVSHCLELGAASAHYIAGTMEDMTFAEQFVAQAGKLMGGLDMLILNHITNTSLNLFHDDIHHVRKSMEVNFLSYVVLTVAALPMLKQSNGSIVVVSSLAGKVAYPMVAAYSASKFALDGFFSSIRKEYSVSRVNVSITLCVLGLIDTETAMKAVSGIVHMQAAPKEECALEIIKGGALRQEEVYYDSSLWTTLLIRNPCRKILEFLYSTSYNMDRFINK
# Description: Experiment 1: Inhibitory Activity Assay Against Cortisone Reducing Activity of Cultured Human Adipocytes
# Normal human preadipocytes (HPrAD-vis, manufactured by Cambrex corporation) were inoculated onto a 48-well cell culture plate, and the differentiation induction was carried out according to Protocol attached to the kit. The medium for the cells on the 9-11 days of the differentiation was changed to D-MEM medium (0.2 ml; manufactured by GIBCO) containing 100 nM [1,2-^3H] cortisone (1 μCi/well, manufactured by Muromachi Yakuhin), 0.5% dimethylsulfoxide and a test compound (for test compound treated group, or dimethylsulfoxide only for the no-test compound treated group). The plate was incubated at 37° C. for 3 hours, and then the whole medium was collected. As a background group, the medium without cell was used. The medium was mixed with ethyl acetate (0.1 ml) in an Eppendorf tube. This mixture was voltexed, and then further centrifuged at 5,000 rpm for one minute at room temperature to separate the ethyl acetate (the upper layer). The ethyl acetate (10 μl) was spotted on an aluminium plate for thin layer chromatography (silica gel 60 angstrom, Merck & Co., Inc., hereinafter referred to as TLC plate). The developing solvent (chloroform/methanol (90:10, v/v)) was put into a sealed vessel, and the TLC plate was developed, and then dried at room temperature. An imaging plate (TR-2040, Fujifilm) was exposed onto the dried TLC plate for 16 hours or more. After the exposure was completed, the imaging plate was analyzed by Bioimage Analyzer (BAS2500, Fujifilm), and the [^3H] radioactivity was measured at the corresponding position of cortisol developed on the TLC plate. The inhibitory activity of a test compound against cortisone reducing activity was calculated according to the following equation. (inhibitory activity(%))=100×((group without test compound)−(group with test compound))/((group without test compound)−(background group))
# The IC50 value was calculated by linear regression of logarithmic value of the concentration of test compound and the inhibitory activity value, using the data at 2 points showing around 50% of the inhibitory activity. […] The IC50 value of the following compounds of the present invention against cortisone reducing activity of human adipose cell was determined.
# [1] = target: T2, cortisone reductase (11βHSD1) (Mus musculus, UniProt P50172); assay: Inhibitory activity assay against cortisone reductase of mouse primary adipocytes; format: cell-based; details: differentiated primary adipocytes from visceral fat of ICR male mice, 100 nM [1,2-3H] cortisone, 37° C., read-out: IC50 against cortisone reductase of mouse adipose cell
# T2 construct: host or cells: primary cells from visceral fat tissue of ICR male mice, differentiated to adipocytes in culture
# T2 sequence (P50172 whole entry): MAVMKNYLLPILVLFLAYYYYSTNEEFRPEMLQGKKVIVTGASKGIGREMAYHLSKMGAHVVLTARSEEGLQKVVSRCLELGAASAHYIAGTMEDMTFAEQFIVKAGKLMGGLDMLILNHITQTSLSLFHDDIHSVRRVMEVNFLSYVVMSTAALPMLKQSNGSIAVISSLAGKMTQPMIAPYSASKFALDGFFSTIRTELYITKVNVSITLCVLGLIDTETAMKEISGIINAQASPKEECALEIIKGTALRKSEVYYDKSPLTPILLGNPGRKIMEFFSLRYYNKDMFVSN
# Description: Experiment 2: Inhibitory Activity Assay Against Cortisone Reductase of Mouse Primary Adipocytes
# The adipose tissues adhered to the mesenterium and around the testicle of ten ICR male mice (9 to 11 weeks old, Japan SLC Inc.) (hereinafter, referred to as visceral fat tissue) were soaked in about 100 mL of a phosphate buffer (0.20 g/L KCl, 0.20 g/L KH2PO4, 8.00 g/L NaCl, 2.16 g/L Na2HPO4.7H2O, 100 unit/ml penicillin (GIBCO), 100 μg/ml streptomycin (GIBCO), 250 ng/ml amphotericin (GIBCO)) and washed at room temperature.
# The excised visceral fat tissues was cut finely in about 5×5 mm with scissors in Dulbecco's modified Eagle medium (about 50 ml, containing 4.5 g/L D-glucose and 584 mg/L L-glutamine, GIBCO) to which collagenase (Type II, Sigma), penicillin (GIBCO), streptomycin (GIBCO) and amphotericin (GIBCO) were added in an amount so that the final concentrations thereof are adjusted to 1 mg/ml, 100 unit/ml, 100 μg/ml and 250 ng/ml, respectively. Then, the mixture was shaken at 37° C. for 30 minutes (about 170 rpm), filtered through nylon mesh (80S [the pore size: 250 μm], SANSHIN INDUSTRIAL CO., LTD.), and the filtrate (cell suspension) was collected. This filtrate was centrifuged at 1800 rpm at room temperature for 5 minutes, and then, the liquid layer was removed stilly by decantation to give a precipitate. This precipitate was suspended in Dulbecco's modified Eagle medium (30 ml, containing 4.5 g/L D-glucose and 584 mg/L L-glutamine, GIBCO; hereinafter, occasionally referred to as FBS-containing medium), to which fetal bovine serum (hereinafter referred to as FBS, GIBCO), ascorbic acid (Wako Pure Chemical Industries, Ltd.), penicillin (GIBCO), streptomycin (GIBCO) and amphotericin (GIBCO) are added thereto in an amount so that the final concentrations thereof were adjusted to 10%, 200 μM, 100 units/ml, 100 μg/ml and 250 ng/ml, respectively, and then the suspension was filtered through a nylon mesh (420S [pore size: 25 μm], SANSHIN INDUSTRIAL CO., LTD.). The filtrate was collected, and centrifuged at 1800 rpm at room temperature for 5 minutes. The liquid layer was removed stilly by decantation, and the precipitate was suspended again in the FBS-containing medium (30 ml). This suspension was treated by the same procedure (centrifugation, removal of liquid layer, suspension in FBS-containing medium) two times more, and the suspension (90 ml) was prepared. This suspension was put into cell culture flasks (T150, for adhered cell culture, Iwaki Glass) in a each volume of 30 ml, and incubated at 37° C. in the presence of 5% CO2. At 5 to 6 hours after starting incubation, the medium was removed, and the wall of the flask was washed with the above-mentioned phosphate buffer (15 ml). The washing liquid was removed, and the washing procedure was repeated again, and the phosphate buffer was removed. To the flask was added FBS-containing medium (30 ml), and the mixture was incubated at 37° C. in the presence of 5% CO2. On Day 1 or Day 2 after the culture started, the medium was removed, and the wall of the flask was washed with the phosphate buffer (15 ml) once. To the flask was added a trypsin-ethylenediamine tetraacetate (hereinafter, referred to as trypsin-EDTA) solution (0.05% trypsin, 0.53 mM EDTA.4Na, GIBCO) in such a volume that the cells are duly soaked, and the mixture was allowed to stand at 37° C. for 5 minutes. To this mixture was added the FBS-containing medium in about 10-times volume of that of the trypsin-EDTA solution, and then the cell suspension was obtained.
# The cells in the cell suspension were counted with a counting chamber, and the cell suspension was diluted with the FBS-containing medium so that the concentration of the cell was adjusted to 1.4×10^5 cells/ml. Thus obtained cell dilution was put into a 48-well plate (for adherent cell culture, Iwaki Glass) in an amount of 300 μl per well, and the plate was incubated at 37° C. in the presence of 5% CO2 for 1 to 2 day(s). […]
IC50 (11βHSD1),IC50 [1],SMILES
< 3 nM,,Cn1c(C(=O)c2ccc(F)cc2)cc(Cl)c1C(=O)NC1C2CC3CC1CC(O)(C3)C2 (stereo not drawn) [Example 516]
3 nM,,CCc1cc(C(=O)c2ccc(F)cc2)ccc1C(=O)NC1C2CC3CC1CC(O)(C3)C2 (stereo not drawn) [Example 98]
1.4 nM,,"COCCc1cc(C(=O)c2ccccc2F)ccc1C(=O)N[C@H]1C2CC3CC1C[C@](O)(C3)C2 [Example 443, 4-(2-Fluorobenzoyl)-N-[(E)-5-hydroxyadamantan-2-yl]-2-(2-methoxyethyl)benzamide]"
< 3 nM,,CCCc1cc(C(=O)c2cccn2C)ccc1C(=O)NC1C2CC3CC1CC(O)(C3)C2 (stereo not drawn) [Example 424]
< 3 nM,,"COCc1cc(C(=O)c2ccccc2)n(C)c1C(=O)N[C@H]1C2CC3CC1C[C@](O)(C3)C2 [Example 440, 5-Benzoyl-N-[(E)-5-hydroxyadamantan-2-yl]-3-(methoxymethyl)-1-methyl-1H-pyrrole-2-carboxamide]"
,3.2 nM,CCOc1cc(C(=O)c2cc(F)ccc2F)ccc1C(=O)NC1C2CC3CC1CC(O)(C3)C2 (stereo not drawn) [Example 258]
12 nM,,O=C(Cc1ccccc1)c1ccc(C(=O)N[C@H]2C3CC4CC2C[C@](O)(C4)C3)c(Cl)c1 [Example 52]
2.8 nM,,CCc1cc(C(=O)c2cccc(OC)c2F)n(C)c1C(=O)NC1C2CC3CC1CC(O)(C3)C2 (stereo not drawn) [Example 486]
3.7 nM,,CCn1nccc1C(=O)c1ccc(C(=O)NC2C3CC4CC2CC(O)(C4)C3)c(COC)c1 (stereo not drawn) [Example 368]
3.6 nM,,O=C(c1ccc(C(=O)NC2C3CC4CC2CC(O)(C4)C3)c(Cl)c1)c1ccccc1F (stereo not drawn) [Example 16]
< 3 nM,,COCc1cc(C(=O)c2ccccc2)ccc1C(=O)N[C@H]1C2CC3CC1C[C@](O)(C3)C2 [Example 51]
9.5 nM,,COCc1cc(C(=O)c2ccccn2)ccc1C(=O)NC1C2CC3CC1CC(O)(C3)C2 (stereo not drawn) [Example 429]
16 nM,,Cn1cccc1C(=O)c1ccc(C(=O)N[C@H]2C3CC4CC2C[C@](O)(C4)C3)c(Cl)c1 [Example 53]
,4.8 nM,COc1cc(C(=O)c2cccn2C)ccc1C(=O)NC1C2CC3CC1CC(O)(C3)C2 (stereo not drawn) [Example 55]

# Further lines, the compound ahead of its results:
SMILES,IC50 (11βHSD1),IC50 [1]
CCc1cc(C(=O)c2cccn2C)n(C)c1C(=O)NC1C2CC3CC1CC(O)(C3)C2 (stereo not drawn) [Example 485],,18.4 nM
Cc1cc(C(=O)c2cccn2C)sc1C(=O)NC1C2CC3CC1CC(O)(C3)C2 (stereo not drawn) [Example 11],4.3 nM,5.1 nM
Cc1cc(C(=O)C2CCOCC2)sc1C(=O)N[C@H]1C2CC3CC1C[C@](O)(C3)C2 [Example 9],,11.1 nM
Cn1c(C(=O)c2ccccc2F)cc(Cl)c1C(=O)NC1C2CC3CC1CC(O)(C3)C2 (stereo not drawn) [Example 514],,20.7 nM
CCc1cc(C(=O)c2ccc(C)s2)n(C)c1C(=O)NC1C2CC3CC1CC(O)(C3)C2 (stereo not drawn) [Example 499],< 3 nM,
Cn1c(C(=O)c2cccc(F)c2)cc(Cl)c1C(=O)NC1C2CC3CC1CC(O)(C3)C2 (stereo not drawn) [Example 515],1.5 nM,
CCc1cc(C(=O)c2cccc(F)c2F)n(C)c1C(=O)NC1C2CC3CC1CC(O)(C3)C2 (stereo not drawn) [Example 488],4.2 nM,
CCc1cc(C(=O)C(C)(C)c2ccccc2)n(C)c1C(=O)NC1C2CC3CC1CC(O)(C3)C2 (stereo not drawn) [Example 505],,9.6 nM
CCc1cc(C(=O)c2c(F)cccc2F)n(C)c1C(=O)NC1C2CC3CC1CC(O)(C3)C2 (stereo not drawn) [Example 487],,25 nM
Cc1cc(C(=O)c2ccccc2)n(C)c1C(=O)N[C@H]1C2CC3CC1C[C@](O)(C3)C2 [Example 62],< 3 nM,
Cc1cc(C(=O)c2cccs2)sc1C(=O)NC1C2CC3CC1CC(O)(C3)C2 (stereo not drawn) [Example 10],,11.7 nM
CCc1cc(C(=O)C2(c3ccccc3)CCC2)n(C)c1C(=O)NC1C2CC3CC1CC(O)(C3)C2 (stereo not drawn) [Example 504],7.3 nM,
